Calls of active or inactive are those of the source. Cut-off read from the data, not from the text of the source: actives have a measured IC50 and inactives only a lower limit.
target: Envelope glycoprotein gp160 (Human immunodeficiency virus 1, UniProt Q6QLK5); assay: inhibitors of HIV fusion peptide binding, primary screen, biochemical, uHTS, fluorescence dequenching (AID 1986)
Sequence (Q6QLK5 whole entry, the tested form may be a part): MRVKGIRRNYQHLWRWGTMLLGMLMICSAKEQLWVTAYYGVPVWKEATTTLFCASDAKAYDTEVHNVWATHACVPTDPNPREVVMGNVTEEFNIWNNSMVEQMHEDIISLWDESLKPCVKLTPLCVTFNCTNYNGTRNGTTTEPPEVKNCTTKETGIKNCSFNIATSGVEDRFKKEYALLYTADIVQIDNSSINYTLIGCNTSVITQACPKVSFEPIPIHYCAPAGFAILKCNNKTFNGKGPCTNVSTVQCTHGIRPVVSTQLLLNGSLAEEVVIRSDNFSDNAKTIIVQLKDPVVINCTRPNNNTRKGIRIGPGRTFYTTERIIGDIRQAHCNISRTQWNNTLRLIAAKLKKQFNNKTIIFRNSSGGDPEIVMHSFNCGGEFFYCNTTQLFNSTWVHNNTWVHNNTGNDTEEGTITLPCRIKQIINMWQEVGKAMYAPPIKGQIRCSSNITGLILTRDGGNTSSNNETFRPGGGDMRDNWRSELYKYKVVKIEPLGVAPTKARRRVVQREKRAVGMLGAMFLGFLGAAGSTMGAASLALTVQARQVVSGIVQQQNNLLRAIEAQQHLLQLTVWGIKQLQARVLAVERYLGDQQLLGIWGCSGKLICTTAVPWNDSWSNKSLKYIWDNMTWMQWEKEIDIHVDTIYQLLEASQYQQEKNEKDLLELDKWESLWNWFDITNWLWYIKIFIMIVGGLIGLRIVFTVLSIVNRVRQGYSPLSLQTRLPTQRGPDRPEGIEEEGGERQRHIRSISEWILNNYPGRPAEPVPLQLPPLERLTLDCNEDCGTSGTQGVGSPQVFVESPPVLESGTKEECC

SMILES	IC50
COc1ccccc1N1N=C(C(=O)c2ccccc2)C2C(=O)N(c3ccc(Br)cc3)C(=O)C21 (stereo not drawn)	14.6 µM (active)
Cc1ccc(NS(=O)(=O)c2ccc(N/N=C/c3ccccc3OCC(=O)O)c([N+](=O)[O-])c2)c(C)c1	13.8 µM (active)
COc1cc(/C=C2\S/C(=N\c3ccccc3)N(CCc3c[nH]c4ccccc34)C2=O)ccc1OC(C)C(=O)O (stereo not drawn)	16.9 µM (active)
